One may read the IC50 as the concentration needed to halve the response being measured.

A short description of series [1]: Cytotoxic assay. To be noted: human, MRC-5 normal embryonic lung cell line.
Series [2] deals with T47D hormone-dependent breast cancer cell line. The series can be described thus: Cytotoxic assay. As to conditions: Homo sapiens, 48 h, read-out: Cytotoxic activity IC50, T47D.
Series [3] concerns HepG2 hepatocellular carcinoma cell line. The series can be described thus: Cytotoxic assay. To be noted: for IC50: Homo sapiens, HepG2, 48 h, read-out: Cytotoxic activity IC50, HepG2.
For series [4], the system named is A549 lung carcinoma cell line. The series can be described thus: Cytotoxic assay. To be noted: Homo sapiens, A549, 48 h, read-out: Cytotoxic activity IC50, A549.
The subject of series [5] is MDA-MB-231 hormone-independent breast cancer cell line. The series can be described thus: Cytotoxic assay. To be noted: Homo sapiens, MDA-MB-231, 48 h, read-out: Cytotoxic activity IC50, MDA-MB-231.
Series [6] concerns MOLT-3 lymphoblastic leukemia cell line. The series can be described thus: Cytotoxic assay. To be noted: for IC50: Homo sapiens, MOLT-3, 48 h, read-out: Cytotoxic activity IC50, MOLT-3.
Series [7] has as its system HuCCA-1 cholangiocarcinoma cancer cell line. The series can be described thus: Cytotoxic assay. As to conditions: Homo sapiens, HuCC-A1, 48 h, read-out: Cytotoxic activity IC50, HuCCA-1.
Series [8] addresses wild-type EGFR (Homo sapiens, UniProt P00533). The series can be described thus: ADP-Glo kinase assay, wild-type EGFR. The series is classed as biochemical. (ADP-Glo first removes unused ATP, then detects ADP through luciferase.)
In series [9] the target is L858R/T790M mutant EGFR (Homo sapiens, UniProt P00533, L858R/T790M). The series can be described thus: ADP-Glo kinase assay, L858R/T790M mutant EGFR. The series is classed as biochemical.
Sequence of L858R/T790M mutant EGFR (P00533 25-1210 T790M/L858R): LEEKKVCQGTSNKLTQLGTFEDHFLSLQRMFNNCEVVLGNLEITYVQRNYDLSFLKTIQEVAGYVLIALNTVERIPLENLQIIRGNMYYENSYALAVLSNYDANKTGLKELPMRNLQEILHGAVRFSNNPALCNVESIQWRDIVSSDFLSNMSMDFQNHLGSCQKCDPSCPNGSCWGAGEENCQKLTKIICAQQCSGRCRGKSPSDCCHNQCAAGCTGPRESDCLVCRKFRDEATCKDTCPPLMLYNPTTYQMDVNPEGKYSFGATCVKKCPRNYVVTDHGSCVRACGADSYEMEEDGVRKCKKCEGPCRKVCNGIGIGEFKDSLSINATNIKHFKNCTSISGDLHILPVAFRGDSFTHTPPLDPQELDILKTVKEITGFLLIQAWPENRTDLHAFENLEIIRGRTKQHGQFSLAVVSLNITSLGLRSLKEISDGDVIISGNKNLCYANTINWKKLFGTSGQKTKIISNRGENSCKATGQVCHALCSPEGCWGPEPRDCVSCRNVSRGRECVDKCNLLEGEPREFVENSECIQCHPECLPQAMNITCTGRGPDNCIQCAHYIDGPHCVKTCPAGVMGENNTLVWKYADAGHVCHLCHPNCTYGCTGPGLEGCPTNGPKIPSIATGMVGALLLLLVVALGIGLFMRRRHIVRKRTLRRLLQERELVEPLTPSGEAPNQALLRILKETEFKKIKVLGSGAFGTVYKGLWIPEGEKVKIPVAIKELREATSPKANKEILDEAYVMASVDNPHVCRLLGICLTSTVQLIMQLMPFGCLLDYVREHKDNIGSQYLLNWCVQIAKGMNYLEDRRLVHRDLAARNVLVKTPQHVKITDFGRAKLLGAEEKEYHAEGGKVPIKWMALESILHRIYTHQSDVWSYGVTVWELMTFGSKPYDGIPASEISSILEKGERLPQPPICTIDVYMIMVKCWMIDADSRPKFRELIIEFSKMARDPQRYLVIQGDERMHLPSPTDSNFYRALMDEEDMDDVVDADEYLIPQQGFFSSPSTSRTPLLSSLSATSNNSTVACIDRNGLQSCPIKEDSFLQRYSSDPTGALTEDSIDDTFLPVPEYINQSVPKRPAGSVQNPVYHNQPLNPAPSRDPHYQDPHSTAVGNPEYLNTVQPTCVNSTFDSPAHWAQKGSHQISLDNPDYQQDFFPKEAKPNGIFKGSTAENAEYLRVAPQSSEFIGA

Sequence of wild-type EGFR (P00533 25-1210): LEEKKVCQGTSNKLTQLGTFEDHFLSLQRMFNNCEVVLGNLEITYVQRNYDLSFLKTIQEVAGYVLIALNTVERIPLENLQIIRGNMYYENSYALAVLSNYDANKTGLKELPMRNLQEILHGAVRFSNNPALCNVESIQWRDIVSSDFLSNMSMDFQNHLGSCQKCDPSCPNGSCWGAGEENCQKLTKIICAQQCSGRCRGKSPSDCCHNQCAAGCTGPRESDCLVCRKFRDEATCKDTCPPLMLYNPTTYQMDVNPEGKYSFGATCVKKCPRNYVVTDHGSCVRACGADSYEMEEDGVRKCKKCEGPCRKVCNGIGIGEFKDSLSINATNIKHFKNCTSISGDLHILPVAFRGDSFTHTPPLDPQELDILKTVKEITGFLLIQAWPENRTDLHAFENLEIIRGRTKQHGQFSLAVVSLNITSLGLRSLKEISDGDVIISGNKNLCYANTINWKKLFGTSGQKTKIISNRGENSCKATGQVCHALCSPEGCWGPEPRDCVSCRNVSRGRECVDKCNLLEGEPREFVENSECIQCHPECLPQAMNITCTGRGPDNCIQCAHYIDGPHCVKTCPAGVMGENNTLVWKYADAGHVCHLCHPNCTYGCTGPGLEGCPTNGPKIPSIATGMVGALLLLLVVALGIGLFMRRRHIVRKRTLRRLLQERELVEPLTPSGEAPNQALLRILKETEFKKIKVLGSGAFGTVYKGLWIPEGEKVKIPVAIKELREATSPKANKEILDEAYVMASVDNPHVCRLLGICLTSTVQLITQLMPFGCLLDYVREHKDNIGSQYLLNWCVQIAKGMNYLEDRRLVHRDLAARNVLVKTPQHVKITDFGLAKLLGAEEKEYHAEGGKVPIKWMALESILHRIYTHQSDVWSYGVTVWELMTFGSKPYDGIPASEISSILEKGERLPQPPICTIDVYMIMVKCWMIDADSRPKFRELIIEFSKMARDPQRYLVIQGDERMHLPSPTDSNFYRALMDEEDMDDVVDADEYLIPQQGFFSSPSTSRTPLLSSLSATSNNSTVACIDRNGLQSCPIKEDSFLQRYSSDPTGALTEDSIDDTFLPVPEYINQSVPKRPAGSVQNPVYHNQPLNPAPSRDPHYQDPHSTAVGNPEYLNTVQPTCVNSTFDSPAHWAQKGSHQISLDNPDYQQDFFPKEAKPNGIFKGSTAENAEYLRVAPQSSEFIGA

In [1], `O=C1C(Cl)=C(Nc2ccc(F)cc2)C(=O)c2ccccc21` [compound 4, 2-Chloro-3-((4-fluorophenyl)amino)naphthalene-1,4-dione] displayed an IC50 at 48 h of 20.2 ± 1.4 µM. For the same molecule, the IC50 in series [2] worked out at 17.9 ± 0.76 µM; in series [3] it was 131.9 ± 1.13 µM; in series [4] it was 148 ± 2.55 µM; in series [5], 17 ± 0.2 µM; in [6] it was 7.45 ± 1.06 µM; in [7], 58.7 ± 0.64 µM.

`O=C1C=C(Nc2ccccc2)C(=O)c2ccccc21` [compound 16, 2-(Phenylamino)naphthalene-1,4-dione] registered an IC50 at 48 h in series [1] greater than 50 µg/mL. Moreover, the IC50 in [2] was greater than 50 µg/mL; in series [3], 25.1 ± 3.31 µM; in series [4], 40.8 ± 1.51 µM; in series [5], 30.4 ± 0.86 µM; in [6], greater than 50 µg/mL; in series [7] it was 96.2 ± 2.84 µM.

As for `O=C1C(Cl)=C(Nc2ccc(O)cc2)C(=O)c2ccccc21` [compound 12, 2-Chloro-3-((4-hydroxyphenyl)amino)naphthalene-1,4-dione], 11.4 ± 3.28 µM corresponded to half-maximal inhibition in series [1] (IC50 at 48 h). Also, the IC50 in series [2] worked out at 14.7 ± 0.43 µM; in [3] it was 22.6 ± 0.87 µM; in [4], 30.73 ± 0.18 µM; in [5] it was 4.77 ± 0.07 µM; in [6] it was 4.67 ± 0.24 µM; in series [7], 8.21 ± 0.33 µM.

Molecule `O=C1C(Br)=C(Nc2ccccc2)C(=O)c2ccccc21` [compound 13, 2-Bromo-3-(phenylamino)naphthalene-1,4-dione] displayed an IC50 at 48 h in series [1] of 15.3 ± 2.67 µM. In addition, the IC50 was 10.1 ± 0.27 µM in series [2]; 20.1 ± 0.54 µM in [3]; 27.91 ± 0.05 µM in series [4]; 9.48 ± 2.17 µM in series [5]; 2.74 ± 0.02 µM in series [6]; 15.6 ± 0.54 µM in series [7].

The molecule `Cc1ccc(NC2=C(Cl)C(=O)c3ccccc3C2=O)cc1` [compound 3, 2-Chloro-3-(p-tolylamino)naphthalene-1,4-dione] had an IC50 at 48 h in series [1] of 92.43 ± 0.02 µM. Further, the IC50 was 39.5 ± 0.3 µM in series [2]; 127.4 ± 0.65 µM in series [3]; greater than 50 µg/mL in series [4]; 10.7 ± 1.89 µM in series [5]; 0.00396 ± 0.00066 µM in [8]; 4.3 ± 0.46 µM in series [6]. Also, the IC50 was 42.2 ± 1.96 µM in series [7] and greater than 0.1 µM in [9]. For the same molecule, the “EGFR inhibitory activity, times higher than that of erlotinib” value in series [8] (ratio of IC50 values, wild-type EGFR) came out at 4 fold.

`N#Cc1ccc(NC2=C(Cl)C(=O)c3ccccc3C2=O)cc1` [compound 9, 4-((3-Chloro-1,4-dioxo-1,4-dihydronaphthalen-2-yl)amino)benzonitrile]: half-maximal inhibition in [1] (IC50 at 48 h) required 18.4 ± 1.65 µM. Moreover, the IC50 was 11.27 ± 0.06 µM in [2]; 73.4 ± 2.26 µM in series [3]; 72.72 ± 0.21 µM in series [4]; 43.08 ± 0.19 µM in [5]; 1.75 ± 0.2 µM in [6]; 22.67 ± 0.09 µM in series [7].

As to `COc1cccc2c1C(=O)c1c(O)c3c(c(O)c1C2=O)C[C@@](O)(C(=O)CO)C[C@@H]3O[C@H]1C[C@H](N)[C@H](O)[C@H](C)O1` [doxorubicin, reference compound], the IC50 at 48 h in series [1] is 2.67 ± 0.2 µM. Besides, the IC50 in [2] was found to be 1.04 ± 0.01 µM; in series [3], 0.5 ± 0.04 µM; in series [4], 0.34 ± 0.01 µM; in [5], 2.1 ± 0.06 µM; in series [6] it was 0.02 µM; in [7] it was 1.17 ± 0.05 µM.

In turn, `O=C1C(Cl)=C(Nc2ccc(I)cc2)C(=O)c2ccccc21` [compound 6, 2-Chloro-3-((4-iodophenyl)amino)naphthalene-1,4-dione] had an IC50 at 48 h in series [1] greater than 50 µg/mL. Also, the IC50 in [2] was 52.5 ± 0.85 µM; in [3] it was greater than 50 µg/mL; in series [4] it was greater than 50 µg/mL; in [5], greater than 50 µg/mL; in [6] it was 42.6 ± 8.11 µM; in series [7], greater than 50 µg/mL.

In series [1], `O=C1C(Cl)=C(Nc2ccc([N+](=O)[O-])cc2)C(=O)c2ccccc21` [compound 8, 2-Chloro-3-((4-nitrophenyl)amino)naphthalene-1,4-dione] had an IC50 at 48 h of 74.9 ± 7.21 µM. Besides, the IC50 in series [2] worked out at 11.7 ± 0.19 µM; in [3], 86.1 ± 1.61 µM; in series [4] it was 70 ± 2.04 µM; in series [5] it was 11.1 ± 2.84 µM; in [8], 0.0114 ± 0.00035 µM; in [6], 1.98 ± 0.28 µM. The figures for the IC50 in series [7] and in series [9] were 16.3 ± 0.98 µM and greater than 0.1 µM, respectively.

In turn, `O=C1C=C(Nc2ccc(F)cc2)C(=O)c2ccccc21` [compound 17, 2-((4-Fluorophenyl)amino)naphthalene-1,4-dione] showed an IC50 at 48 h in series [1] of 21.6 ± 2.45 µM. In addition, the IC50 in series [2] was 88.7 ± 1.64 µM; in series [3] it was 23.4 ± 3.45 µM; in series [4] it was greater than 50 µg/mL; in series [5] it was 21.8 ± 2.95 µM; in [6], greater than 50 µg/mL; in series [7] it was 9.65 ± 1.99 µM.

Turning to `COc1ccc(NC2=C(Cl)C(=O)c3ccccc3C2=O)cc1` [compound 11, 2-Chloro-3-((4-methoxyphenyl)amino)naphthalene-1,4-dione], the IC50 at 48 h in [1] is greater than 50 µg/mL. Besides, the IC50 in [2] was greater than 50 µg/mL; in series [3] it was greater than 50 µg/mL; in [4] it was greater than 50 µg/mL; in [5], 105 ± 2.72 µM; in [6], 17.6 ± 3.3 µM; in series [7], greater than 50 µg/mL.

As to `O=C1C(Br)=C(Nc2ccc(Br)cc2)C(=O)c2ccccc21` [compound 15, 2-Bromo-3-((4-bromophenyl)amino)naphthalene-1,4-dione], the IC50 at 48 h in series [1] was greater than 50 µg/mL. Also, the IC50 is greater than 50 µg/mL in series [2]; 4.94 ± 0.02 µM in [3]; greater than 50 µg/mL in series [4]; 65.5 ± 3.01 µM in series [5]; 7.17 ± 1.12 µM in series [6]; 70.2 ± 1.12 µM in series [7].

For `O=C1C(Cl)=C(Nc2ccc(Br)cc2)C(=O)c2ccccc21` [compound 5, 2-((4-Bromophenyl)amino)-3-chloronaphthalene-1,4-dione], the IC50 at 48 h in [1] was greater than 50 µg/mL. The IC50 in [2], in [3], in [4], in [5], in [6] and in series [7] was greater than 50 µg/mL in each case. Further, in [3], the “Cytotoxic activity IC50, HepG2” value was “inactive”. Also, the “Cytotoxic activity IC50, MOLT-3” value in series [6] is “inactive”.

Molecule `O=C1C(Cl)=C(Nc2cccc([N+](=O)[O-])c2)C(=O)c2ccccc21` [compound 10, 2-Chloro-3-((3-nitrophenyl)amino)naphthalene-1,4-dione] had an IC50 at 48 h in series [1] of 74.53 ± 0.71 µM. In addition, the IC50 in [2] was 19.2 ± 1.77 µM; in series [3], greater than 50 µg/mL; in [4], 114.1 ± 0.71 µM; in [5], 16.2 ± 0.57 µM; in series [8], 0.0186 ± 0.00141 µM; in [6] it was 2.98 ± 0.25 µM. The IC50 in series [7] is 42.1 ± 0.74 µM; in [9], greater than 0.1 µM.

`COc1ccc(NC2=CC(=O)c3ccccc3C2=O)cc1` [compound 18, 2-((4-Methoxyphenyl)amino)naphthalene-1,4-dione] had an IC50 at 48 h in [1] greater than 50 µg/mL. Besides, the IC50 in series [2], in series [3], in [4], in [5], in [6] and in series [7] was greater than 50 µg/mL each time.

In the case of `O=C1C(Br)=C(Nc2ccc(F)cc2)C(=O)c2ccccc21` [compound 14, 2-Bromo-3-((4-fluorophenyl)amino)naphthalene-1,4-dione], in series [1], it took 12.5 ± 0.74 µM to reach half-maximal inhibition (IC50 at 48 h). The IC50 stood at 28.5 ± 1 µM in [2]; 19.1 ± 0.82 µM in [3]; 50 ± 3 µM in series [4]; 7.54 ± 2.07 µM in series [5]; 4.65 ± 0.41 µM in [6]; 16.2 ± 1.65 µM in series [7].

Take `COc1cc([C@@H]2c3cc4c(cc3[C@@H](O[C@@H]3O[C@@H]5CO[C@@H](C)O[C@H]5[C@H](O)[C@H]3O)[C@H]3COC(=O)[C@H]23)OCO4)cc(OC)c1O` [etoposide, reference compound]: the IC50 in series [3] is 50 ± 3.7 µM; in series [6], 0.05 µM.

Consider `O=C1C(Cl)=C(Nc2ccc(C(F)(F)F)cc2)C(=O)c2ccccc21` [compound 7, 2-Chloro-3-((4-(trifluoromethyl)phenyl)amino)naphthalene-1,4-dione], for which the IC50 at 48 h in [1] was greater than 50 µg/mL. Further, the IC50 in [2] was 63.4 ± 2.12 µM; in series [3], greater than 50 µg/mL; in series [4], greater than 50 µg/mL; in [5] it was 70.8 ± 2.19 µM; in series [6], 7.68 ± 0.84 µM; in series [7], greater than 50 µg/mL.

These data come from publication PMC9161259 (ACS Omega, 2022).
